# Results published in PMC10094418, “Butein Inhibits Cell Growth by Blocking the IL-6/IL-6Rα Interaction in Human Ovarian Cancer and by Regulation of the IL-6/STAT3/FoxO3a Pathway” (International Journal of Molecular Sciences, 2023).
# System: A2780 cells
# Assay: Annexin V apoptosis assay, A2780
# Type: cell-based, human
# Settings: dose-dependent, p < 0.005
# Protocol: A2780 and SKOV3 cell lines were treated with control (siltuximab 10 μM) and butein (5, 10, and 25 μM). After 6 h, the cells were fixed with 70% ethanol for cell cycle analysis and stained with propidium iodide (PI). Cell death was analyzed using the FITC Annexin V Apoptosis Detection kit with 7-AAD (Cat.no. 640922, BioLegend, San Diego, CA, USA). Cells were sorted using a FACS Canto II (BD Biosciences, Franklin Lakes, NJ, USA) and cell cycle and apoptosis were analyzed using BD FACS Diva software version 6. 2. Analysis (BD Biosciences, Franklin Lakes, NJ, USA) was performed in triplicate.
structure (smiles),measurement,value
O=C(/C=C/c1ccc(O)c(O)c1)c1ccc(O)cc1O [butein],"Total apoptosis, A2780",significantly increase
